What was measured:
[1] = system: AATT hairpin duplex (DNA, hairpin) CGAATTCGTTTTCGAATTCG; test: SPR steady state; conditions: 50 mM KCl, 10 mM HEPES, 3 mM EDTA, pH 7.3
[2] = system: cMYC19 (DNA, G4) AGGGTGGGGAGGGTGGGGA; test: SPR steady state, two-site fit; conditions: 50 mM KCl; 10 mM HEPES, 3 mM EDTA, pH 7.3; site 1 of 2
[3] = system: Tel22 (DNA, G4) AGGGTTAGGGTTAGGGTTAGGG; test: UV thermal melting, 295 nm; conditions: 50 mM KCl, 10 mM TRIS, 3 mM EDTA, pH 7.3
[4] = system: Tel22 (DNA, G4) AGGGTTAGGGTTAGGGTTAGGG; test: SPR steady state, two-site fit; conditions: 50 mM KCl; 10 mM HEPES, 3 mM EDTA, pH 7.3; site 1 of 2
[5] = system: Tel22 (DNA, G4) AGGGTTAGGGTTAGGGTTAGGG; test: SPR; conditions: 50 mM KCl; 10 mM HEPES, 3 mM EDTA, pH 7.3; ligand range 10 nM–10 µM
[6] = system: cMYC19 (DNA, G4) AGGGTGGGGAGGGTGGGGA; test: SPR; conditions: 50 mM KCl; 10 mM HEPES, 3 mM EDTA, pH 7.3; ligand range 10 nM–10 µM
[7] = system: AATT hairpin duplex (DNA, hairpin) CGAATTCGTTTTCGAATTCG; test: SPR; conditions: 50 mM KCl; 10 mM HEPES, 3 mM EDTA, pH 7.3; ligand range 10 nM–10 µM
[8] = system: AATT hairpin duplex (DNA, hairpin) CGAATTCGTTTTCGAATTCG; test: UV thermal melting, 260 nm; conditions: 50 mM KCl, 10 mM TRIS, 3 mM EDTA, pH 7.3
[9] = system: MYC22 (DNA, G4) TGAGGGTGGGGAGGGTGGGGAA; test: 1H NMR imino proton titration; conditions: 20 mM potassium phosphate; pH 6.02, 35 °C, 100 µM; 3'-end tetrad first, then 5'-end tetrad

Row | Structure (SMILES) | K1 [1] | K1 [2] | ∆Tm ([3]; drug:DNA 6:1) | K1 [4] | ∆Tm ([8]; drug:DNA 6:1) | other results
1 | CC1(C)C(/C=C/C=C2/N(CCC[N+](C)(C)C)c3ccc(Cl)cc3C2(C)C)=[N+](CCC[N+](C)(C)C)c2ccc(Cl)cc21 | < 10^5 M^−1 | 8.4e+06 M⁻¹ | 19 °C | 2.7e+06 M⁻¹ | – | –
2 | CCCCN1/C(=C/C=C/C2=[N+](CCCC)c3ccccc3C2(C)C)C(C)(C)c2ccccc21 | – | – | 0 °C | – | – | binding [5]: no; binding [6]: no; binding [7]: no
3 | CC1(C)C(/C=C/C=C2/N(CCC[N+](C)(C)C)c3ccc(Br)cc3C2(C)C)=[N+](CCC[N+](C)(C)C)c2ccc(Br)cc21 | – | 1.2e+07 M⁻¹ | – | 5.5e+06 M⁻¹ | – | K1 ([1]; up to 1 µM): < 10^5 M^−1; ∆Tm ([8]; drug:DNA 6:1, DNA 3 µM): 0 °C; ∆Tm ([3]; drug:DNA 6:1, DNA 3 µM): 24 °C; binding [9]: yes
4 | CC1(C)C(/C=C/C=C2/N(CCC[N+](C)(C)C)c3ccc(I)cc3C2(C)C)=[N+](CCC[N+](C)(C)C)c2ccc(I)cc21 | < 10^5 M^−1 | 7.8e+06 M⁻¹ | 21 °C | 2.1e+06 M⁻¹ | 3 °C | –
5 | CC1(C)C(/C=C/C=C2/N(CCCc3ccccc3)c3ccccc3C2(C)C)=[N+](CCCc2ccccc2)c2ccccc21 | < 10^5 M^−1 | 1.2e+06 M⁻¹ | 11 °C | 130000 M⁻¹ | – | –
6 | CC1(C)C(/C=C/C=C2/N(CCC[N+](C)(C)C)c3ccccc3C2(C)C)=[N+](CCC[N+](C)(C)C)c2ccccc21 | – | 3.8e+06 M⁻¹ | 14 °C | 390000 M⁻¹ | 2 °C | K1 ([1]; up to 10 µM): < 10^5 M^−1; binding [9]: yes
7 | CC1(C)C(/C=C/C=C2/N(CCC[N+](C)(C)C)c3ccc(S(=O)(=O)O)cc3C2(C)C)=[N+](CCC[N+](C)(C)C)c2ccc(S(=O)(=O)O)cc21 | < 10^5 M^−1 | 570000 M⁻¹ | 1 °C | 820000 M⁻¹ | – | –
8 | CC1(C)C(/C=C/C=C2/N(CCC[N+](C)(C)C)c3ccc(C(=O)O)cc3C2(C)C)=[N+](CCC[N+](C)(C)C)c2ccc(C(=O)O)cc21 | < 10^5 M^−1 | 5e+06 M⁻¹ | – | 830000 M⁻¹ | 3 °C | –
9 | CC1(C)C(/C=C/C=C2/N(CCC[N+](C)(C)C)c3ccc(F)cc3C2(C)C)=[N+](CCC[N+](C)(C)C)c2ccc(F)cc21 | < 10^5 M^−1 | 6.3e+06 M⁻¹ | – | 5.9e+06 M⁻¹ | – | –

Reference: article PMC4457452 (2013)
